Target: T1, human DGAT1 (Homo sapiens, UniProt O75907)
T1 construct: FLAG (N); made in house; host or cells: SF9 insect cells (pFastBac baculovirus); total cell membranes
T1 sequence (O75907 1-488): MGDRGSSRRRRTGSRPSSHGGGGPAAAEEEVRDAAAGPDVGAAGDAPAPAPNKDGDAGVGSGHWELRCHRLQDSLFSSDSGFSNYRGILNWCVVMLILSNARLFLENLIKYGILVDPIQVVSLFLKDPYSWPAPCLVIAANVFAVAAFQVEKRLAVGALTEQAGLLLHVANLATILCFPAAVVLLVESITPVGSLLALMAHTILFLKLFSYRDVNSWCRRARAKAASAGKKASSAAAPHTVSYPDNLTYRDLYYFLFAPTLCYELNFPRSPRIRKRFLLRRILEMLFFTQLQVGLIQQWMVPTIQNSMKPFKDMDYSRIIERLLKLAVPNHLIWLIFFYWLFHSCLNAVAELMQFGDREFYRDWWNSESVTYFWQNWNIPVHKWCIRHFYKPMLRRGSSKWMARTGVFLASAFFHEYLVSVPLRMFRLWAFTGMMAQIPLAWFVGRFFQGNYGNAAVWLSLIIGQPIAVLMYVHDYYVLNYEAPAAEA
Experiment: Inhibition of DGAT1 activity, FlashPlate assay with DGAT1 membrane preparations and substrate micelles
Assay type: biochemical
Settings: pIC50 = -logIC50, IC50 values expressed in M
From the text: A) Measurement of Inhibition of DGAT1 Activity by the Present Compounds
The inhibiting activity of the present compounds on DGAT1 activity was screened in a single well procedure assay using DGAT1 comprising membrane preparations and DGAT1 substrate comprising micelles and determining formed radio-active triacylglycerol coming in close proximity of a flashplate surface by radio luminescence.
Said assay is described in full detail in WO2006/067071, the content of which is incorporated herein by reference.
By DGAT1 activity is meant the transfer of coenzyme A activated fatty acids to the 3-position of 1,2-diacylglycerols, thus forming a triglyceride molecule, by enzyme DGAT1.
human DGAT1 (NM012079.2) was cloned into the pFastBac vector, containing translation start, a FLAG-tag at the N-terminus as described in literature and a viral Kozak sequence (AAX) preceding the ATG to improve expression in insect cells. Expression was done as described in literature (Cases, S., Smith, S. J., Zheng, Y., Myers H. M., Lear, S. R., Sande, E., Novak, S., Collins, C., Welch, C. B., Lusis, A. J., Erickson, S. K. and Farese, R. V. (1998) Proc. Natl. Acad. Sci. USA 95, 13018-13023.) using SF9 cells.
72 h transfected SF9 cells were collected by centrifugation (13000 rpm-15 min-4° C.) and lysed in 2×500 ml lysisbuffer (0.1M Sucrose, 50 mM KCl, 40 mM KH2PO4, 30 mM EDTA pH 7.2. Cells were homogenized by cell disruptor. After centrifugation 1380 rpm-15 min-4° C. (SN discarded), pellet was resuspended in 500 ml lysisbuffer and total cell membranes collected by ultracentrifugation at 34000 rpm(100 000 g) for 60 min (4° C.). The collected membranes were resuspended in lysis buffer, divided in aliquots and stored with 10% glycerol at −80° C. until use.
Add 1 ml dioleoyl-sn-glycerol (10 mg/ml) to 10 ml of L-α-phosphatidylcholine (1 mg/ml) and 10 ml of L-α-phosphatidyl-L-serine (1 mg/ml) in a thick glass recipient. Evaporate under nitrogen and put on ice for 15 minutes. Reconstitute in 10 ml Tris/HCl (10 mM, pH 7.4) by sonication on ice. The sonification process consists of sonification cycles of 10 seconds in the sonification bath followed by 10 seconds cool down on ice and repeating this sonification cycle till a homogeneous solution is obtained (takes about 15 minutes). The thus obtained micelles are stored at −20° C. till later use and contain DAG at a final concentration of 1.61 mM.
c) Substrate mix (for 1 384 well plate=3840 μl) • 612 μl micelles stock (51 μM final) • 16.6 μl oleoylCoA 9.7 mM • 23 μl [^3H]-oleoylCoA (49 Ci/mmol, 500 μCi/ml) • 3188.4 μl Tris pH 7.4, 10 mM
d) Enzyme mix (for 1 384 well plate=3520 μl) (5 μg/ml) • Add 11.73 μl of DGAT membrane stock (1500 μg/ml stock) to 3508 μl assay buffer.
e) Stop mix (for 1 384 well plate=7.68 ml) (250 mM) • Add 384 μl of N-ethylmaleimide (5M) to 3.456 ml DMSO 100%, and further dilute 3.84 ml of said solution with 3.84 ml DMSO 10%.
DGAT activity in membrane preparations was assayed in 50 mM Tris-HCl (pH 7.4), 150 mM MgCl2, 1 mM EDTA and 0.2% BSA, containing 50 μM DAG, 32 μg/ml PC/PS and 8.4 μM [^3H]-oleoylCoA (at a specific activity of 30 nCi/well) in a final volume of 50 μl in 384-well format using the red shifted Basic Image FlashPlate™ (Perkin Elmer Cat.No. SMP400).
In detail, 10 μl enzyme mix and 10 μl substrate mix were added to 30 μl of assay buffer, optionally in the presence of 1 μl DMSO (blank and controls) or 1 μl of the compound to be tested. This reaction mixture was incubated for 120 minutes at 37° C. and the enzymatic reaction stopped by adding 20 μl of the stop mix. The plates were sealed and the vesicles allowed to settle overnight at room temperature. Plates were centrifuged for 5 minutes at 1500 rpm and measured in Leadseeker. […]

Row | SMILES | IC50 [nM]
1 | CC(C)(C)OC(=O)NCCC(=O)Nc1ccc(C2CCN(C(=O)Nc3c(Cl)cccc3Cl)CC2)cc1 [Compound 214] | 97.7
2 | CC(C)C(CC(=O)Nc1ccc(C2CCN(C(=O)Nc3c(Cl)cccc3Cl)CC2)cc1)NC(=O)OC(C)(C)C (centres unmarked) [Compound 215] | 58.9
3 | CC(C)(C)OC(=O)NC1(C(=O)Nc2ccc(C3CCN(C(=O)Nc4c(Cl)cccc4Cl)CC3)cc2)CCCC1 [Compound 216] | 34.7
4 | C#CCC(NC(=O)OC(C)(C)C)C(=O)Nc1ccc(C2CCN(C(=O)Nc3c(Cl)cccc3Cl)CC2)cc1 (centres unmarked) [Compound 220] | 19.1
5 | O=C(NCc1cccc(N2CCCC2)c1)c1ccc(N2CCN(C(=O)Nc3c(Cl)cc(CN4CCCC4)cc3Cl)CC2)cc1 [Compound 224] | 8.32
6 | O=C(NCc1cccc(N2CCCC2)c1)c1ccc(N2CCN(C(=O)Nc3c(Cl)cc(CCN4CCCC4)cc3Cl)CC2)cc1 [Compound 227] | 11.7
7 | O=C(NCc1ccc2c(c1)OCO2)c1ccc(N2CCN(C(=O)Cc3c(Cl)cccc3Cl)CC2)cc1 [Compound 235] | 53.7
8 | O=C(NCC12CC3CC(CC(C3)C1)C2)c1ccc(N2CCN(C(=O)Nc3c(Cl)cc(CN4CCCC4)cc3Cl)CC2)cc1 [Compound 243] | 129
9 | COc1ccc(CNC(=O)c2ccc(N3CCN(C(=O)Nc4c(Cl)cncc4Cl)CC3)cc2)cc1 [Compound 245] | 145
10 | O=C(NCc1cccc(F)c1)c1ccc(N2CCN(C(=O)Cc3c(Cl)cccc3Cl)CC2)cc1 [Compound 247] | 155
11 | O=C(NCc1ccccc1F)c1ccc(N2CCN(C(=O)Cc3c(Cl)cccc3Cl)CC2)cc1 [Compound 249] | 162
12 | CC(NC(=O)c1ccc(N2CCN(C(=O)Cc3c(Cl)cccc3Cl)CC2)cc1)c1ccc(F)cc1 (centres unmarked) [Compound 250] | 174
13 | O=C(NCc1cc(F)cc(F)c1)c1ccc(N2CCN(C(=O)Cc3c(Cl)cccc3Cl)CC2)cc1 [Compound 252] | 234
14 | O=C(NCc1cccc(N2CCCC2)c1)c1ccc(N2CCN(C(=O)Cc3c(Cl)cc(CN4CCCC4)cc3Cl)CC2)cc1 [Compound 267] | 107
15 | O=C(CCCc1ccccc1)Nc1ccc(N2CCN(C(=O)Nc3c(Cl)cc(CN4CCOCC4)cc3Cl)CC2)cc1 [Compound 269] | 2.04
16 | COCCNC(C)c1cc(Cl)c(NC(=O)N2CCN(c3ccc(NC(=O)CCCc4ccccc4)cc3)CC2)c(Cl)c1 (centres unmarked) [Compound 274] | 3.98
17 | COCCN1CCN(C(=O)c2cc(Cl)c(NC(=O)N3CCN(c4ccc(NC(=O)CCCc5ccccc5)cc4)CC3)c(Cl)c2)CC1 [Compound 275] | 4.17
18 | O=C(CC(=O)OCc1ccccc1)Nc1ccc(N2CCN(C(=O)Nc3c(Cl)cccc3Cl)CC2)cc1 [Compound 277] | 4.57
19 | CC(C)(C)OC(=O)CCC(=O)Nc1ccc(N2CCN(C(=O)Nc3c(Cl)cccc3Cl)CC2)cc1 [Compound 279] | 6.76
20 | CC(C)(C)OC(=O)CC(=O)Nc1ccc(N2CCN(C(=O)Nc3c(Cl)cccc3Cl)CC2)cc1 [Compound 282] | 7.76
21 | CN(C)C(=O)c1cc(Cl)c(NC(=O)N2CCN(c3ccc(NC(=O)CCCc4ccccc4)cc3)CC2)c(Cl)c1 [Compound 284] | 8.13
22 | CN1CCN(C(=O)c2cc(Cl)c(NC(=O)N3CCN(c4ccc(NC(=O)CCCc5ccccc5)cc4)CC3)c(Cl)c2)CC1 [Compound 290] | 10.5

Row | SMILES | IC50 [nM]
23 | COCCN(C)C(=O)c1cc(Cl)c(NC(=O)N2CCN(c3ccc(NC(=O)CCCc4ccccc4)cc3)CC2)c(Cl)c1 [Compound 291] | 10.5
24 | O=C(CCCc1ccccc1)Nc1ccc(N2CCN(C(=O)Nc3c(Cl)cc(C(=O)N4CCOCC4)cc3Cl)CC2)cc1 [Compound 294] | 12.3
25 | O=C(CCCc1ccccc1)Nc1ccc(N2CCN(C(=O)C(O)c3ccccc3Br)CC2)cc1 (centres unmarked) [Compound 295] | 13.8
26 | CN(C)C(=O)CN(C)C(=O)c1cc(Cl)c(NC(=O)N2CCN(c3ccc(NC(=O)CCCc4ccccc4)cc3)CC2)c(Cl)c1 [Compound 296] | 14.8
27 | CCOC(=O)CCCC(=O)Nc1ccc(N2CCN(C(=O)Nc3c(Cl)cccc3Cl)CC2)cc1 [Compound 297] | 15.1
28 | COc1ccc(CC(=O)Nc2ccc([N+]3([O-])CCN(C(=O)Nc4c(Cl)cc(C[N+]5([O-])CCCC5)cc4Cl)CC3)cc2)cc1 [Compound 300] | 20
29 | O=C(CCC(=O)OCc1ccccc1)Nc1ccc(N2CCN(C(=O)Nc3c(Cl)cccc3Cl)CC2)cc1 [Compound 302] | 20.9
30 | O=C(CCCc1ccccc1)Nc1ccc(N2CCN(C(=O)Nc3c(Cl)cc(C(=O)NCc4ccncc4)cc3Cl)CC2)cc1 [Compound 303] | 21.4
31 | COCCNC(=O)c1cc(Cl)c(NC(=O)N2CCN(c3ccc(NC(=O)CCCc4ccccc4)cc3)CC2)c(Cl)c1 [Compound 306] | 26.3
32 | COc1ccc(CC(=O)Nc2ccc(N3CCN(C(=O)Oc4c(Cl)cccc4Cl)CC3)cc2)cc1 [Compound 308] | 31.6
33 | O=C(CCCc1ccccc1)Nc1ccc(N2CCN(C(=O)C(O)c3ccc(F)cc3Cl)CC2)cc1 (centres unmarked) [Compound 309] | 35.5
34 | O=C(CCCc1ccccc1)Nc1ccc(N2CCN(C(=O)Nc3c(Cl)cc(C(=O)NCCN4CCOCC4)cc3Cl)CC2)cc1 [Compound 310] | 37.2
35 | CC(=O)NCCNC(=O)c1cc(Cl)c(NC(=O)N2CCN(c3ccc(NC(=O)CCCc4ccccc4)cc3)CC2)c(Cl)c1 [Compound 314] | 51.3
36 | O=C(CCCc1ccccc1)Nc1ccc(N2CCN(C(=O)C(O)c3c(Cl)cccc3Cl)CC2)cc1 (centres unmarked) [Compound 315] | 58.9
37 | CN(C)CCNC(=O)c1cc(Cl)c(NC(=O)N2CCN(c3ccc(NC(=O)CCCc4ccccc4)cc3)CC2)c(Cl)c1 [Compound 321] | 91.2
38 | O=C(CCCc1ccccc1)Nc1ccc(N2CCN(C(=O)C(O)c3ccc(F)cc3F)CC2)cc1 (centres unmarked) [Compound 325] | 115
39 | O=C(CCCc1ccccc1)Nc1ccc(N2CCN(C(=O)Nc3c(Cl)cccc3Cl)CC2)c(CO)c1 [Compound 326] | 126
40 | O=C(CCCc1ccccc1)Nc1ccc(N2CCN(C(=O)C(O)c3cccc(F)c3F)CC2)cc1 (centres unmarked) [Compound 327] | 129
41 | O=C(CCCc1ccccc1)Nc1ccc(N2CCN(C(=O)C(O)c3c(F)cccc3F)CC2)cc1 (centres unmarked) [Compound 330] | 200
42 | CCC(C(=O)Nc1ccc(N2CCN(C(=O)Cc3ccccc3C)CC2)cc1)c1ccccc1 (centres unmarked) [Compound 336] | 692
43 | COc1ccc(CC(=O)Nc2ccc(N3CCN(C(=O)C(N)c4ccccc4Cl)CC3)cc2)cc1 (centres unmarked) [Compound 337] | 2450
44 | O=C(CCCc1ccccc1)Nc1ccc(N2CCN(C(=O)C(O)c3cccc(O)c3)CC2)cc1 (centres unmarked) [Compound 340] | 3550

— patent publication US8981094B2, “Piperidine/piperazine derivatives” (Janssen Pharmaceutica N.V., priority 2007, dated 2015)
